Source: ChEMBL document CHEMBL5465560, “Selectivity Literature for EUbOPEN Chemogenomic Library” (2024)

Columns and labels:
[1] = biological target: T1, G protein-coupled receptor kinase 3 (Homo sapiens) (UniProt P35626); assay: Selectivity interaction (SelectScreen profiling (Invitrogen)) EUB0000607a ADRBK2; details: at 2 µM
T1 sequence (whole entry): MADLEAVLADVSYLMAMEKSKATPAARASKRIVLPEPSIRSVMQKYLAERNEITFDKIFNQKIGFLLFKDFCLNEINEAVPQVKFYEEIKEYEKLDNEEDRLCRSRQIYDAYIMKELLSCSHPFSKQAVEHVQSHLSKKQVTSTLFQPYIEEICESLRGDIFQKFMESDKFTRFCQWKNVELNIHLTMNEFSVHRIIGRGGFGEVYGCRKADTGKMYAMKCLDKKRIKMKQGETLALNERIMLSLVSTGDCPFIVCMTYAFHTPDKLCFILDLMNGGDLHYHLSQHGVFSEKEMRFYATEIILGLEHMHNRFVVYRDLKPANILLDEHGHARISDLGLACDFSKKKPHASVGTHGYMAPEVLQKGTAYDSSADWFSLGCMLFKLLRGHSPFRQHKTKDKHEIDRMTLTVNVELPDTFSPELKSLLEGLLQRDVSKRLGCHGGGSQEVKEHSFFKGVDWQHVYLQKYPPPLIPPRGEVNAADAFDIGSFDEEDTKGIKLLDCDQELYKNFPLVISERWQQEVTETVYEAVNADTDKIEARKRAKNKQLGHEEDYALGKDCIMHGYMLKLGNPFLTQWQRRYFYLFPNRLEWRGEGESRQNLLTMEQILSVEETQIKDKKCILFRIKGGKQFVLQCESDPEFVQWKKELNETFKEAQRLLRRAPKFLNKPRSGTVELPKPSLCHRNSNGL

[2] = biological target: Casein kinase I isoform gamma-1 (Homo sapiens) (UniProt Q9HCP0); assay: Selectivity interaction (ProQinase) EUB0000171b CSNK1G1
[3] = biological target: T2, Serine/threonine-protein kinase Chk1 (Homo sapiens) (UniProt O14757); details: at 10 µM
T2 sequence (whole entry): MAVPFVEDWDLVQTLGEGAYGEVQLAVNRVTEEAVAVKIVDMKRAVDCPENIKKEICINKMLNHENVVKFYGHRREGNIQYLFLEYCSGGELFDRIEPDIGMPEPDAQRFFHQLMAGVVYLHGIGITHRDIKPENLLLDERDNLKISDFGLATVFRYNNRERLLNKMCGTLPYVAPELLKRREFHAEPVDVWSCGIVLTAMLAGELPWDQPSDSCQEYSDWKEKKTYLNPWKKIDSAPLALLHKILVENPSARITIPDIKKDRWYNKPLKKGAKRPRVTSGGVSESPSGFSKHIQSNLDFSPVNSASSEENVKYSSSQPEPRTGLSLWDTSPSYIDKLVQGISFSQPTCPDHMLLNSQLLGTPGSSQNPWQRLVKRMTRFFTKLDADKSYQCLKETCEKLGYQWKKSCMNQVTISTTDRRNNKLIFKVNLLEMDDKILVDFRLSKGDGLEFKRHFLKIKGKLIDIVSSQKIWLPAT

[4] = biological target: T3, Ephrin type-B receptor 3 (Homo sapiens) (UniProt P54753); assay: Selectivity interaction (Ambit KINOMEscan and KiNATiv profiling in Jurkat cells) EUB0000090b EPHB3; type: cell-based; details: at 1 µM
T3 sequence (whole entry): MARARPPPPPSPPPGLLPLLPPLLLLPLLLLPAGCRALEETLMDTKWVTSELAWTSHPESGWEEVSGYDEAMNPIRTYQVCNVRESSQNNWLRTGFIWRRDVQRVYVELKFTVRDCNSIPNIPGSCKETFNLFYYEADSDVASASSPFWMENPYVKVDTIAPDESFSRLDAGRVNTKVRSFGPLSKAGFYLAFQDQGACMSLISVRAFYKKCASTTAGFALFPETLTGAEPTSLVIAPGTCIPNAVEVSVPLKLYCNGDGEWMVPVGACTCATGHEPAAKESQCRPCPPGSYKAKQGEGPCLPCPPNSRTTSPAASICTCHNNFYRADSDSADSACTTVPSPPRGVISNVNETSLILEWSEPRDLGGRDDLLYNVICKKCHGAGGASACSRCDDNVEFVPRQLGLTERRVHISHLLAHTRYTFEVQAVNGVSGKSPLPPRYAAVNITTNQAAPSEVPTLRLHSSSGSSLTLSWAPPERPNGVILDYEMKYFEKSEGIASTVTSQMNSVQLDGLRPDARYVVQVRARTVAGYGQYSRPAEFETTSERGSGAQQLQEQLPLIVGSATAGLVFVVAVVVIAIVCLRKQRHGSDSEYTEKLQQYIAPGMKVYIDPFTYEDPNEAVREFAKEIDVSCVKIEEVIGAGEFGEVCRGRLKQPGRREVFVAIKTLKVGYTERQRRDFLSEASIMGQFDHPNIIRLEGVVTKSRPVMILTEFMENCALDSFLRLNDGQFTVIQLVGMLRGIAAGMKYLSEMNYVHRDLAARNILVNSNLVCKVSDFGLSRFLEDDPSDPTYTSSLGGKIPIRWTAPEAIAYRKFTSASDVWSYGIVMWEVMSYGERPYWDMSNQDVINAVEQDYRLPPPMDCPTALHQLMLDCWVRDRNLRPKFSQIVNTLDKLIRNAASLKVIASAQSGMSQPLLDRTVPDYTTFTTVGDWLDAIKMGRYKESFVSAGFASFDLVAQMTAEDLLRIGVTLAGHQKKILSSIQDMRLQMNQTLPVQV

[5] = biological target: Histone-lysine N-methyltransferase 2C (Homo sapiens) (UniProt Q8NEZ4); details: at 1 µM
[6] = system: Epidermal growth factor receptor (Homo sapiens), P00533 [L861Q]; details: at 10 µM
Chain of Epidermal growth factor receptor (Homo sapiens), P00533 [L861Q] (P00533 whole entry L861Q): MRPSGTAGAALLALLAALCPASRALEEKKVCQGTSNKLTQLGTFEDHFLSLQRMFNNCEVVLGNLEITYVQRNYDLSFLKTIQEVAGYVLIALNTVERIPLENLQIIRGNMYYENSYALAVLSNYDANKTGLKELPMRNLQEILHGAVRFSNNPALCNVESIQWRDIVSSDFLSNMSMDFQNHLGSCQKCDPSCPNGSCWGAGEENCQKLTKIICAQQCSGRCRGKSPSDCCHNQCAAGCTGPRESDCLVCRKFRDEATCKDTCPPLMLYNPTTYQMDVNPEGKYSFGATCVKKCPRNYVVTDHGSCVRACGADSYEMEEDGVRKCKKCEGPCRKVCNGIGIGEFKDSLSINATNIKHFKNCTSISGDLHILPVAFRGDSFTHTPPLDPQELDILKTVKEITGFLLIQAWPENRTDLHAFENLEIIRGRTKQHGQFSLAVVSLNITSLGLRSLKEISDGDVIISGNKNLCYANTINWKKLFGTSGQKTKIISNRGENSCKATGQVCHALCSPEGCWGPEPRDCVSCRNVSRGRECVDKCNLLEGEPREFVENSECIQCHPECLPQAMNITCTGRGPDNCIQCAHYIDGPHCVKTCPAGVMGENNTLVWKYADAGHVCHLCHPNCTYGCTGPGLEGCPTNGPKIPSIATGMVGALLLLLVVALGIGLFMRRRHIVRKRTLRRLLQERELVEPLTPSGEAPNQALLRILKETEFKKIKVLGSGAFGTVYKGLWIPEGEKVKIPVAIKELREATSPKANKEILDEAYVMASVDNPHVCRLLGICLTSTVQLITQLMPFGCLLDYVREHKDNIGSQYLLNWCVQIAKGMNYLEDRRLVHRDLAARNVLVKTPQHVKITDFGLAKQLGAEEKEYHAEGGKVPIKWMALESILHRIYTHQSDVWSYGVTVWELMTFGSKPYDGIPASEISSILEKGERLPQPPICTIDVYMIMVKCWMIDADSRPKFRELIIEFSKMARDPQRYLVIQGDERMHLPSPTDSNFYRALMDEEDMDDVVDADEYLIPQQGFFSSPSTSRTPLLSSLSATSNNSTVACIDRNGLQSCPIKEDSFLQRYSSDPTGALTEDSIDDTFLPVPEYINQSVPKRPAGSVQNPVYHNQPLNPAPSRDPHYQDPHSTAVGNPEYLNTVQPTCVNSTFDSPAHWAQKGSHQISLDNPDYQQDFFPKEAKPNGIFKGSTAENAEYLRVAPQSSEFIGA

Chain of Casein kinase I isoform gamma-1 (Homo sapiens) (Q9HCP0 whole entry, looked up, canonical isoform): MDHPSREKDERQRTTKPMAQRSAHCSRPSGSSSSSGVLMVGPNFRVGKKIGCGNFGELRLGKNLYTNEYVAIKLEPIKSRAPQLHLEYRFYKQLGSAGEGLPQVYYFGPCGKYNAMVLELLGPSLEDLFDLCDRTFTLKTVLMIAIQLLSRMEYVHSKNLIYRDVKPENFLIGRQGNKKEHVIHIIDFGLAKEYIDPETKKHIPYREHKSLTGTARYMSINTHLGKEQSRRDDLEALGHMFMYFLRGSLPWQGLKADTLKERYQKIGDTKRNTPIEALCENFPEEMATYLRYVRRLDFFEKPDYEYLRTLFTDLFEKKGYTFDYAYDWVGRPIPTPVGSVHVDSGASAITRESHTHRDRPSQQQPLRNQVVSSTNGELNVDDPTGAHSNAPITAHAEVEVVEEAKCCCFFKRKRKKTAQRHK

Structure (SMILES): CNC(=O)Nc1ccc(-c2nc(N3CC4CCC(C3)O4)c3cnn(C4CCC5(CC4)OCCO5)c3n2)cc1
- % of inhibition [1]: -3%

Structure (SMILES): C=CC(=O)Nc1cccc(C(=O)Nc2ccc(Nc3cc(-c4[nH]c(SC)nc4C)ccn3)cc2)c1
- % of control ([2]; at 1 µM): 65%
- % of control ([2]; at 5 µM): 31%

Structure (SMILES): COCC(=O)NC/C=C/c1ccc2ncnc(Nc3ccc(Oc4ccc(C)nc4)c(C)c3)c2c1 [CP-724714]
- % of control [3]: 90%

Structure (SMILES): CN(C)C/C=C/C(=O)Nc1ccc(C(=O)N2CCCC(Nc3ncc(Cl)c(-c4c[nH]c5ccccc45)n3)C2)cc1 (configuration not stated)
- % of control [4]: 93%

Structure (SMILES): CNCCN1CCC(c2cc(CN(C)C(=O)c3cccc(Oc4ccccc4)c3)ccn2)CC1
- % activity [5]: > 90%

Structure (SMILES): Cc1cc([C@@H](C)Nc2ccccc2C(=O)O)c2nc(N3CCOCC3)cc(=O)n2c1 [AZD-6482]
- % of control [6]: 100%
